What all share (assay type): cell-based
The test system of one assay is Escherichia coli. The assay can be described thus: MIC against a single isolate (Example 26). The note with it: read-out: E. coli MIC. As for the experimental part:
(§1) Bacterial strains evaluated in this study include Escherichia coli, Klebsiella spp, Serratia marcescens, Proteus mirabilis/vulgaris, Citrobacter spp, Providencia spp, Morganella morganii, Pseudomonas aeruginosa, Staphylococcus aureus (MRSA only), and Enterococcus faecalis. Nu-8 test solutions are adjusted to pH 3.5 with citric acid, and MIC is evaluated per the CLSI methods in Mueller-Hinton broth supplemented accordingly to facilitate growth of specific strains.
(§2) MIC was determined as per Example 9 using LAI-101, LAI-102, Nu-10, LAI-105, LAI-106, Nu-3, and Nu-8 against a single isolate of Escherichia coli. Pseudomonas aeruginosa, Staphylococcus aureus (MRSA only), and Candida Albicans. For all microbe species, the LAI-101, LAI-102, Nu-10, LAI-105, and LAI-106 all perform at least as well as, and in many experiments better than, Nu-8 and Nu-3, which are both already quite active compounds.

A further assay has as its system Pseudomonas aeruginosa. Briefly: MIC against a single isolate (Example 26). The note with it: read-out: P. aeruginosa MIC. As for the experimental part: as §1, §2
In a further assay the test system is Candida Albicans. The assay can be described thus: MIC against a single isolate (Example 26). As to conditions: read-out: C. albicans MIC. As for the experimental part:
as §1, §2

Assay [1] relates to Staphylococcus aureus (MRSA only). Briefly: MIC against a single isolate (Example 26). The note with it: read-out: S. aureus MIC. As for the experimental part: as §1, §2
The next assay relates to E. coli (ATCC 25922). The assay can be described thus: Time kill assay in saline at pH 3.5 (Example 27). As to conditions: for Log10 CFU/mL: pH 3.5. As for the experimental part: Log10 5 CFU of E. coli (ATCC 25922) were suspended in saline. Additionally, a sample of the saline only was prepared as a vehicle control (V.C.). Solutions of Nu-3, Nu-8, and Nu-10 at varying concentrations were adjusted to pH 3.5 with citric acid and added to the E. coli suspensions. At each time point (0, 1, 2.5, 5, 10, and 20 minutes), the treated bacterial suspensions were plated and incubated for 24 hrs, and each plate was read to determine the CFU count.
Tables 12-14 provide the time kill assay data for Nu-3 (Table 12), Nu-8 (Table 13) and Nu-10 (Table 14) against E. coli.

The term MIC denotes the least concentration at which growth counts as inhibited.

Where two headings read alike, the source gives them in different places.

For the molecule `Nc1ncnc2c1ncn2[C@H]1C[C@H](OP(=O)(O)OC2CCCCC2)[C@@H](COP(=O)(O)OC2CCCCC2)O1` [LAI-105, ((2R,3S,5R)-5-(6-amino-9H-purin-9-yl)-3-(((cyclohexyloxy)(hydroxy)phosphoryl)oxy)tetrahydrofuran-2-yl)methyl cyclohexyl hydrogen phosphate], the MIC with Escherichia coli (single isolate) was over 5000 µg/mL; in the assay with Pseudomonas aeruginosa (single isolate), 5000 µg/mL; in the assay with Candida Albicans (single isolate), over 5 mg/mL; in assay [1] (single isolate), over 5000 µg/mL.

Take `CC(C)COP(=O)(O)OC[C@H]1O[C@@H](n2ccc(N)nc2=O)C[C@@H]1OP(=O)(O)OCC(C)C` [LAI-101, ((2R,3S,5R)-5-(4-amino-2-oxopyrimidin-1(2H)-yl)-3-((hydroxy(isobutoxy)phosphoryl)-oxy)tetrahydrofuran-2-yl)methyl isobutyl hydrogen phosphate]: the MIC in the assay with Escherichia coli came out at 5000 µg/mL; with Pseudomonas aeruginosa, 5000 µg/mL; with Candida Albicans, 50 mg/mL; in assay [1], 5000 µg/mL.

With `Nc1ccn([C@H]2C[C@H](OP(=O)(O)OCc3ccccc3)[C@@H](COP(=O)(O)OCc3ccccc3)O2)c(=O)n1` [LAI-102, ((2R,3S,5R)-5-(4-amino-2-oxopyrimidin-1(2H)-yl)-3-(((benzyloxy)(hydroxy)-phosphoryl)oxy)tetrahydrofuran-2-yl)methyl benzyl hydrogen phosphate], the MIC amounted to 5000 µg/mL in the assay with Escherichia coli, 25000 µg/mL with Pseudomonas aeruginosa, 50 mg/mL in the assay on Candida Albicans and 25000 µg/mL in assay [1].

Turning to `CCCCOP(=O)(O)OC[C@H]1O[C@@H](n2ccc(N)nc2=O)[C@H](OC)[C@@H]1OP(=O)(O)OCCCC` [Nu-10, ((2R,3R,4R,5R)-5-(4-amino-2-oxopyrimidin-1(2H)-yl)-3-((butoxy(hydroxy)phosphoryl)oxy)-4-methoxytetrahydrofuran-2-yl)methyl butyl hydrogen phosphate], the minimum inhibitory concentration (MIC) with Escherichia coli (single isolate) amounted to 1000 µg/mL; with Pseudomonas aeruginosa (single isolate), 5000 µg/mL; in the assay with Candida Albicans (single isolate) it was 5 mg/mL; in assay [1] (single isolate) it was 5000 µg/mL. The “Log10 CFU/mL” value came out at 5.20 Log10 CFU/mL with E. coli (ATCC 25922) (0.1% solution, 0 min); 3.78 Log10 CFU/mL with E. coli (ATCC 25922) (0.1% solution, 1 min); 3.38 Log10 CFU/mL in the assay on E. coli (ATCC 25922) (0.1% solution, 2.5 min); 2.57 Log10 CFU/mL with E. coli (ATCC 25922) (0.1% solution, 5 min); 0.00 Log10 CFU/mL in the assay with E. coli (ATCC 25922) (0.1% solution, 10 min); 0.00 Log10 CFU/mL in the assay on E. coli (ATCC 25922) (0.1% solution, 20 min). The “Log10 CFU/mL” value worked out at 5.20 Log10 CFU/mL with E. coli (ATCC 25922) (0.5% solution, 0 min); 2.51 Log10 CFU/mL with E. coli (ATCC 25922) (0.5% solution, 1 min); 0.00 Log10 CFU/mL in the assay with E. coli (ATCC 25922) (0.5% solution, 2.5 min); 0.00 Log10 CFU/mL with E. coli (ATCC 25922) (0.5% solution, 5 min); 0.00 Log10 CFU/mL in the assay with E. coli (ATCC 25922) (0.5% solution, 10 min); 0.00 Log10 CFU/mL with E. coli (ATCC 25922) (0.5% solution, 20 min). Also, the “Log10 CFU/mL” value came to 5.20 Log10 CFU/mL in the assay with E. coli (ATCC 25922) (2.5% solution, 0 min); 0.00 Log10 CFU/mL in the assay on E. coli (ATCC 25922) (2.5% solution, 1 min); 0.00 Log10 CFU/mL in the assay on E. coli (ATCC 25922) (2.5% solution, 2.5 min); 0.00 Log10 CFU/mL with E. coli (ATCC 25922) (2.5% solution, 5 min); 0.00 Log10 CFU/mL in the assay on E. coli (ATCC 25922) (2.5% solution, 10 min); 0.00 Log10 CFU/mL with E. coli (ATCC 25922) (2.5% solution, 20 min). Moreover, the “time to complete kill of the bacteria” value with E. coli (ATCC 25922) (concentration of 2.5%) was at most 1 min.

As for `CCCCOP(=O)(O)OC[C@H]1O[C@@H](n2cnc3c(N)ncnc32)[C@H](OC)[C@@H]1OP(=O)(O)OCCCC` [LAI-106, ((2R,3R,4R,5R)-5-(6-amino-9H-purin-9-yl)-3-((butoxy(hydroxy)phosphoryl)oxy)-4-methoxytetrahydrofuran-2-yl)methyl butyl hydrogen phosphate], the MIC worked out at 1000 µg/mL with Escherichia coli (single isolate), 5000 µg/mL with Pseudomonas aeruginosa (single isolate), 25 mg/mL with Candida Albicans (single isolate) and 5000 µg/mL in assay [1] (single isolate).

For the origin of these results see patent US12054509B2, “Antimicrobial compounds, compositions, and uses thereof” (Lakewood Amedex, Inc., priority 2017, dated 2024).
